Laboratory results taken from patent US20250108038A1 (priority 2023, published 2025).
“And” between values parts separate entries of the source, which are not always exact repeats. Equal values may be shown once. Where a name gives a salt, the structure may show the parent alone.

Test system: Long Evans rats
Experiment: Behavioral satiety sequence (BSS)
Type: in vivo, Long Evans rat
From the text: The Behavioural Satiety Sequence (BSS) is a technique used to evaluate physiological satiety. It is based on the expression of a sequence of behaviors including eating, grooming, locomotor activity, followed by resting, which are typically observed in rodents post-ingestion (Halford et al, 1998, Pharmacology Biochemistry and Behaviour. 61(2): 159-168). The BSS is a widely used model for determining the effects of novel pharmaceuticals on food intake and measures of satiety in rodents (Oliveira et al, 2011, Revista de Nutrição. 24(4) 619-628), and to discriminate the cause of reduced food intake following pharmacological manipulation. For example, treatments that may reduce food intake by non-specific mechanisms, such as immobility, malaise, and taste adulteration, will disrupt this sequence (Halford et al, 1998, Pharmacology Biochemistry and Behaviour. 61(2): 159-168).
Specifically, 12 male Long-Evans rats were food-deprived for 22 h with a 2 h feeding period each day. Rats were trained to consume daily food during the 2 h period over 25 days. The testing phase was initiated once the rats consistently consumed 16-18 g of food per day with ≤10% variance in amount of feed consumed. Feeding took place in designated individual boxes in a quiet room separate from the housing room. Continuous remote monitoring via video camera during feeding was used to assess the BSS. Food consumption was measured by weighing the total available food before and after the 2 h feeding window, correcting for spillage. Lorcaserin (1 mg/kg) was included as a reference control (Higgins et al, 2011, Neuropsychopharmacology. 37(5): 1177-1191). Subjects were tested using a repeated-measures, Latin square design with 2-3 days wash-out between treatment cycles.
On scheduled test days, animals were monitored remotely via video camera during the feeding access period. The occurrence of four mutually exclusive behaviors (eating/drinking, grooming, active, rest) were individually scored. Over the 2 h feeding period, behaviors were assessed every 30 seconds. Scores were compiled into 23 5 min timebins (timebin 24 was removed due to early removal of animals) and the frequency of each behavior within each timebin was calculated to determine a temporal frequency of each measure (Rodgers et al, 2010, Pharmacology Biochemistry and Behaviour. 97: 3-14). Percentage time was plotted for each behavioral sequence in each timebin to compare between treatment groups (Higgins et al, 2011, Neuropsychopharmacology. 37(5): 1177-1191).

[1] = Lorcaserin 1 mg/kg, AVG of animals LT-1 to LT-12, 0-0.5 hours
[2] = Lorcaserin 1 mg/kg, raw data per animal LT-1 to LT-12, 0-0.5 hours, hydrochloride
[3] = lorcaserin 1 mg/kg, AVG of animals LT-1 to LT-12
[4] = lorcaserin 1 mg/kg, raw score per animal (LT-1 to LT-12), hydrochloride

SMILES: C[C@H]1CNCCc2ccc(Cl)cc21 [lorcaserin, Lorcaserin hydrochloride, reference compound]
- BSS scoring R (resting), Time Bin 12 (55-60 TOTAL) (Lorcaserin 1 mg/kg s.c., raw score per animal, hydrochloride): 0 (10×) and 1 (2×)
- BSS scoring A (active), Time Bin 1 (0-5 TOTAL), AVG [1]: 0.17
- BSS scoring A (active), Time Bin 2 (5-10 TOTAL), AVG [1]: 0.08
- BSS scoring A (active), Time Bin 3 (10-15 TOTAL), AVG [1]: 0.09
- BSS scoring A (active), Time Bin 4 (15-20 TOTAL), AVG [1]: 0.10
- BSS scoring A (active), Time Bin 5 (20-25 TOTAL), AVG [1]: 0.18
- BSS scoring A (active), Time Bin 6 (25-30 TOTAL), AVG [1]: 0.15
- BSS scoring E (eating/drinking), Time Bin 1 (0-5 TOTAL), AVG [1]: 0.75
- BSS scoring E (eating/drinking), Time Bin 2 (5-10 TOTAL), AVG [1]: 0.83
- BSS scoring E (eating/drinking), Time Bin 3 (10-15 TOTAL), AVG [1]: 0.78
- BSS scoring E (eating/drinking), Time Bin 4 (15-20 TOTAL), AVG [1]: 0.78
- BSS scoring E (eating/drinking), Time Bin 5 (20-25 TOTAL), AVG [1]: 0.71
- BSS scoring E (eating/drinking), Time Bin 6 (25-30 TOTAL), AVG [1]: 0.75
- BSS scoring G (grooming), Time Bin 1 (0-5 TOTAL), AVG [1]: 0.08
- BSS scoring G (grooming), Time Bin 2 (5-10 TOTAL), AVG [1]: 0.09
- BSS scoring G (grooming), Time Bin 3 (10-15 TOTAL), AVG [1]: 0.10
- BSS scoring G (grooming), Time Bin 4 (15-20 TOTAL), AVG [1]: 0.09
- BSS scoring G (grooming), Time Bin 5 (20-25 TOTAL), AVG [1]: 0.12
- BSS scoring G (grooming), Time Bin 6 (25-30 TOTAL), AVG [1]: 0.05
- BSS scoring R (resting), Time Bin 1 (0-5 TOTAL), AVG [1]: 0.01
- BSS scoring R (resting), Time Bin 2 (5-10 TOTAL), AVG [1]: 0.01
- BSS scoring R (resting), Time Bin 3 (10-15 TOTAL), AVG [1]: 0.02
- BSS scoring R (resting), Time Bin 4 (15-20 TOTAL), AVG [1]: 0.03
- BSS scoring R (resting), Time Bin 5 (20-25 TOTAL), AVG [1]: 0.00
- BSS scoring R (resting), Time Bin 6 (25-30 TOTAL), AVG [1]: 0.05
- BSS scoring R (resting), Time Bin 5 (20-25 TOTAL) (Lorcaserin 1 mg/kg, raw data per animal LT-1 to LT-12, 0-0.5 hours): 0
- BSS scoring A (active), Time Bin 1 (0-5 TOTAL) [2]: 3 (3×) and 2 (4×) and 1 (3×) and 0 (2×)
- BSS scoring A (active), Time Bin 2 (5-10 TOTAL) [2]: 1 (3×) and 0 (6×) and 2 (3×)
- BSS scoring A (active), Time Bin 3 (10-15 TOTAL) [2]: 1 (7×) and 0 (3×) and 2 (2×)
- BSS scoring A (active), Time Bin 4 (15-20 TOTAL) [2]: 3 (3×) and 1 (3×) and 0 (6×)
- BSS scoring A (active), Time Bin 5 (20-25 TOTAL) [2]: 0 (3×) and 1 (3×) and 3 (2×) and 4 (2×) and 2 (2×)
- BSS scoring A (active), Time Bin 6 (25-30 TOTAL) [2]: 2 (2×) and 0 (4×) and 1 (4×) and 7 and 3
- BSS scoring E (eating/drinking), Time Bin 1 (0-5 TOTAL) [2]: 7 (4×) and 6 (3×) and 8 (2×) and 10 and 9 (2×)
- BSS scoring E (eating/drinking), Time Bin 2 (5-10 TOTAL) [2]: 6 (2×) and 9 (4×) and 8 (3×) and 7 and 10 (2×)
- BSS scoring E (eating/drinking), Time Bin 3 (10-15 TOTAL) [2]: 8 (6×) and 5 and 7 and 6 and 10 and 9 (2×)
- BSS scoring E (eating/drinking), Time Bin 4 (15-20 TOTAL) [2]: 7 (3×) and 8 and 6 (3×) and 10 and 9 (4×)
- BSS scoring E (eating/drinking), Time Bin 5 (20-25 TOTAL) [2]: 9 (2×) and 8 (4×) and 7 (3×) and 4 (2×) and 6
- BSS scoring E (eating/drinking), Time Bin 6 (25-30 TOTAL) [2]: 7 (2×) and 9 (4×) and 10 and 8 (3×) and 1 and 5
- BSS scoring G (grooming), Time Bin 1 (0-5 TOTAL) [2]: 0 (4×) and 2 and 1 (7×)
- BSS scoring G (grooming), Time Bin 2 (5-10 TOTAL) [2]: 3 and 1 (4×) and 0 (5×) and 2 (2×)
- BSS scoring G (grooming), Time Bin 3 (10-15 TOTAL) [2]: 1 (4×) and 2 (4×) and 0 (4×)
- BSS scoring G (grooming), Time Bin 4 (15-20 TOTAL) [2]: 0 (4×) and 1 (5×) and 2 (3×)
- BSS scoring G (grooming), Time Bin 5 (20-25 TOTAL) [2]: 1 (3×) and 2 (4×) and 0 (4×) and 3
- BSS scoring G (grooming), Time Bin 6 (25-30 TOTAL) [2]: 0 (7×) and 1 (4×) and 2
- BSS scoring R (resting), Time Bin 1 (0-5 TOTAL) [2]: 0 (11×) and 1
- BSS scoring R (resting), Time Bin 2 (5-10 TOTAL) [2]: 0 (11×) and 1
- BSS scoring R (resting), Time Bin 3 (10-15 TOTAL) [2]: 0 (10×) and 1 (2×)
- BSS scoring R (resting), Time Bin 4 (15-20 TOTAL) [2]: 0 (8×) and 1 (4×)
- BSS scoring R (resting), Time Bin 6 (25-30 TOTAL) [2]: 1 (3×) and 0 (8×) and 3
- BSS scoring A (active), Time Bin 19 (90-95 TOTAL), AVG [3]: 0.10
- BSS scoring A (active), Time Bin 20 (95-100 TOTAL), AVG [3]: 0.08
- BSS scoring A (active), Time Bin 21 (100-105 TOTAL), AVG [3]: 0.06
- BSS scoring A (active), Time Bin 22 (105-110 TOTAL), AVG [3]: 0.02
- BSS scoring A (active), Time Bin 23 (110-115 TOTAL), AVG [3]: 0.06
- BSS scoring A (active), Time Bin 24 (115-120 TOTAL), AVG [3]: 0.10
- BSS scoring E (eating/drinking), Time Bin 19 (90-95 TOTAL), AVG [3]: 0.77
- BSS scoring E (eating/drinking), Time Bin 20 (95-100 TOTAL), AVG [3]: 0.75
- BSS scoring E (eating/drinking), Time Bin 21 (100-105 TOTAL), AVG [3]: 0.84
- BSS scoring E (eating/drinking), Time Bin 22 (105-110 TOTAL), AVG [3]: 0.84
- BSS scoring E (eating/drinking), Time Bin 23 (110-115 TOTAL), AVG [3]: 0.75
- BSS scoring E (eating/drinking), Time Bin 24 (115-120 TOTAL), AVG [3]: 0.58
- BSS scoring G (grooming), Time Bin 19 (90-95 TOTAL), AVG [3]: 0.04
- BSS scoring G (grooming), Time Bin 20 (95-100 TOTAL), AVG [3]: 0.05
- BSS scoring G (grooming), Time Bin 21 (100-105 TOTAL), AVG [3]: 0.05
- BSS scoring G (grooming), Time Bin 22 (105-110 TOTAL), AVG [3]: 0.01
- BSS scoring G (grooming), Time Bin 23 (110-115 TOTAL), AVG [3]: 0.08
- BSS scoring G (grooming), Time Bin 24 (115-120 TOTAL), AVG [3]: 0.07
- BSS scoring R (resting), Time Bin 19 (90-95 TOTAL), AVG [3]: 0.09
- BSS scoring R (resting), Time Bin 20 (95-100 TOTAL), AVG [3]: 0.12
- BSS scoring R (resting), Time Bin 21 (100-105 TOTAL), AVG [3]: 0.05
- BSS scoring R (resting), Time Bin 22 (105-110 TOTAL), AVG [3]: 0.13
- BSS scoring R (resting), Time Bin 23 (110-115 TOTAL), AVG [3]: 0.11
- BSS scoring R (resting), Time Bin 24 (115-120 TOTAL), AVG [3]: 0.08
- BSS scoring A (active), Time Bin 19 (90-95 TOTAL) [4]: 2 (3×) and 0 (7×) and 3 (2×)
- BSS scoring A (active), Time Bin 20 (95-100 TOTAL) [4]: 0 (7×) and 1 (2×) and 4 and 2 (2×)
- BSS scoring A (active), Time Bin 21 (100-105 TOTAL) [4]: 0 (7×) and 1 (4×) and 3
- BSS scoring A (active), Time Bin 22 (105-110 TOTAL) [4]: 0 (11×) and 2
- BSS scoring A (active), Time Bin 23 (110-115 TOTAL) [4]: 0 (6×) and 1 (5×) and 2
- BSS scoring A (active), Time Bin 24 (115-120 TOTAL) [4]: 0 (8×) and 6 and 1 and 3 and 2
- BSS scoring E (eating/drinking), Time Bin 19 (90-95 TOTAL) [4]: 8 and 9 (3×) and 5 (2×) and 10 (2×) and 7 (3×) and 6
- BSS scoring E (eating/drinking), Time Bin 20 (95-100 TOTAL) [4]: 9 (5×) and 8 and 0 and 10 (2×) and 4 and 6 and 7
- BSS scoring E (eating/drinking), Time Bin 21 (100-105 TOTAL) [4]: 8 (4×) and 9 (2×) and 7 (3×) and 10 (3×)
- BSS scoring E (eating/drinking), Time Bin 22 (105-110 TOTAL) [4]: 7 and 8 (4×) and 9 (3×) and 10 (3×) and 5
- BSS scoring E (eating/drinking), Time Bin 23 (110-115 TOTAL) [4]: 6 (5×) and 8 (3×) and 9 (4×)
- BSS scoring E (eating/drinking), Time Bin 24 (115-120 TOTAL) [4]: 10 (2×) and 9 and 0 (2×) and 7 (2×) and 4 (2×) and 5 and 6 and 8
- BSS scoring G (grooming), Time Bin 19 (90-95 TOTAL) [4]: 0 (9×) and 3 and 1 (2×)
- BSS scoring G (grooming), Time Bin 20 (95-100 TOTAL) [4]: 0 (7×) and 1 (4×) and 2
- BSS scoring G (grooming), Time Bin 21 (100-105 TOTAL) [4]: 0 (7×) and 1 (4×) and 2
- BSS scoring G (grooming), Time Bin 22 (105-110 TOTAL) [4]: 0 (11×) and 1
- BSS scoring G (grooming), Time Bin 23 (110-115 TOTAL) [4]: 4 and 2 (2×) and 0 (7×) and 1 (2×)
- BSS scoring G (grooming), Time Bin 24 (115-120 TOTAL) [4]: 0 (7×) and 2 (3×) and 1 (2×)
- BSS scoring R (resting), Time Bin 19 (90-95 TOTAL) [4]: 0 (6×) and 1 (3×) and 3 (2×) and 2
- BSS scoring R (resting), Time Bin 20 (95-100 TOTAL) [4]: 1 (5×) and 0 (5×) and 7 and 2
- BSS scoring R (resting), Time Bin 21 (100-105 TOTAL) [4]: 2 and 0 (9×) and 3 and 1
- BSS scoring R (resting), Time Bin 22 (105-110 TOTAL) [4]: 3 (2×) and 2 (4×) and 0 (4×) and 1 (2×)
- BSS scoring R (resting), Time Bin 23 (110-115 TOTAL) [4]: 0 (3×) and 1 (6×) and 2 (2×) and 3
- BSS scoring R (resting), Time Bin 24 (115-120 TOTAL) [4]: 0 (7×) and 1 (2×) and 4 and 2 (2×)
